Source: the supplement of paper PMC8967900

These compounds were tested on MOLT-14 (assay: selective drug sensitivity score (sDSS, relative to normal bone marrow) (sDSS (score)); higher = more potent and effective on the cell line relative to normal bone marrow cells). Details: 72 h.
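Also: ALL cell lines in 384-well plates, five doses spanning 10,000-fold, each plate scaled between vehicle and 100 µmol/L benzalkonium chloride controls, sDSS an adapted area-under-curve metric.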

SMILES | selective drug sensitivity score
O=C(Nc1ccncc1)C(=O)c1cn(Cc2ccc(Cl)cc2)c2ccccc12 [Indibulin] (top concentration 10000 nM) | 14.1
Cc1ncc(-c2ccnc(Nc3ccc(S(C)(=O)=O)cc3)n2)n1C(C)C [AZD-5438] (top concentration 10000 nM) | 3.64
NC[C@@](O)(c1ccc(Cl)cc1)c1ccc(-c2cn[nH]c2)cc1 (top concentration 10000 nM) | -1.22
Cn1c(Nc2ccc(C(F)(F)F)cc2)nc2cc(Oc3ccnc(-c4ncc(C(F)(F)F)[nH]4)c3)ccc21 [NVP-RAF265] (top concentration 1000 nM) | 6.38
CNCc1ccc(-c2[nH]c3cc(F)cc4c3c2CCNC4=O)cc1 [Rucaparib] (top concentration 10000 nM) | 1.62
O=C(CCCCCCC(=O)Nc1ccc([C@H]2O[C@@H](CSc3nc(-c4ccccc4)c(-c4ccccc4)o3)C[C@@H](c3ccc(CO)cc3)O2)cc1)NO [Tubacin] (top concentration 10000 nM) | 8.34
N#CCNC(=O)c1ccc(-c2ccnc(Nc3ccc(N4CCOCC4)cc3)n2)cc1 [Momelotinib] (top concentration 10000 nM) | -3.92
Nc1cccc2c1CN(C1CCC(=O)NC1=O)C2=O (stereo not given) [Lenalidomide] (top concentration 100000 nM) | 0.12
CCN1CCN(Cc2ccc(Nc3ncc(F)c(-c4cc(F)c5nc(C)n(C(C)C)c5c4)n3)nc2)CC1 [Abemaciclib] (top concentration 2500 nM) | 1.44

Each compound was assayed on MOLT-16 in the same assay as above. Details: 72 h.

SMILES | selective drug sensitivity score
CC(C)(C)c1cnc(CSc2cnc(NC(=O)C3CCNCC3)s2)o1 [SNS-032] (top concentration 10000 nM) | -0.64
Cn1cncc1[C@@](N)(c1ccc(Cl)cc1)c1ccc2c(c1)c(-c1cccc(Cl)c1)cc(=O)n2C [Tipifarnib] (top concentration 10000 nM) | 11.8
COc1ccccc1S(=O)(=O)Nc1ccc2c(c1)CN(C)C(=O)N2 [PFI-1] (top concentration 30000 nM) | 8.6
Cc1cn(-c2cc(NC(=O)c3ccc(C)c(Nc4nccc(-c5cnccn5)n4)c3)cc(C(F)(F)F)c2)cn1 [Radotinib] (top concentration 10000 nM) | 0.4
CC[C@H](Nc1ncnc2[nH]cnc12)c1nc2cccc(F)c2c(=O)n1-c1ccccc1 [Idelalisib] (top concentration 10000 nM) | 1.24
Cc1noc2c1-c1ccccc1C(c1ccc(Cl)cc1)=N[C@H]2CC(N)=O [CPI-0610] (top concentration 10000 nM) | 6.7
C=C(c1ccc(C(=O)O)cc1)c1cc2c(cc1C)C(C)(C)CCC2(C)C [Bexarotene] (top concentration 10000 nM) | 1.7
CC1(COc2ccc3c(c2)ncn3-c2ccc3cccc(N4CCC(N)CC4)c3n2)COC1 [Crenolanib] (top concentration 10000 nM) | -0.22
O=C(Nc1cc(Oc2cc(F)c(NC(=O)C3(C(=O)Nc4ccc(F)cc4)CC3)cc2F)ccn1)C1CC1 [Altiratinib] (top concentration 10000 nM) | 0.04
O=C(Nc1ccncc1)C(=O)c1cn(Cc2ccc(Cl)cc2)c2ccccc12 [Indibulin] (top concentration 10000 nM) | 16
Cc1ncc(-c2ccnc(Nc3ccc(S(C)(=O)=O)cc3)n2)n1C(C)C [AZD-5438] (top concentration 10000 nM) | 5.44
NC[C@@](O)(c1ccc(Cl)cc1)c1ccc(-c2cn[nH]c2)cc1 (top concentration 10000 nM) | 0.38
Cn1c(Nc2ccc(C(F)(F)F)cc2)nc2cc(Oc3ccnc(-c4ncc(C(F)(F)F)[nH]4)c3)ccc21 [NVP-RAF265] (top concentration 1000 nM) | 8.68
CNCc1ccc(-c2[nH]c3cc(F)cc4c3c2CCNC4=O)cc1 [Rucaparib] (top concentration 10000 nM) | 2.72
O=C(CCCCCCC(=O)Nc1ccc([C@H]2O[C@@H](CSc3nc(-c4ccccc4)c(-c4ccccc4)o3)C[C@@H](c3ccc(CO)cc3)O2)cc1)NO [Tubacin] (top concentration 10000 nM) | 9.14
N#CCNC(=O)c1ccc(-c2ccnc(Nc3ccc(N4CCOCC4)cc3)n2)cc1 [Momelotinib] (top concentration 10000 nM) | 0.28
Nc1cccc2c1CN(C1CCC(=O)NC1=O)C2=O (stereo not given) [Lenalidomide] (top concentration 100000 nM) | -0.88
CCN1CCN(Cc2ccc(Nc3ncc(F)c(-c4cc(F)c5nc(C)n(C(C)C)c5c4)n3)nc2)CC1 [Abemaciclib] (top concentration 2500 nM) | 8.24

Each compound was assayed on NALM-6 in the same assay as above. Details: 72 h.

SMILES | selective drug sensitivity score
CC(C)(C)c1cnc(CSc2cnc(NC(=O)C3CCNCC3)s2)o1 [SNS-032] (top concentration 10000 nM) | -2.44
Cn1cncc1[C@@](N)(c1ccc(Cl)cc1)c1ccc2c(c1)c(-c1cccc(Cl)c1)cc(=O)n2C [Tipifarnib] (top concentration 10000 nM) | 10.6
COc1ccccc1S(=O)(=O)Nc1ccc2c(c1)CN(C)C(=O)N2 [PFI-1] (top concentration 30000 nM) | 1.7
Cc1cn(-c2cc(NC(=O)c3ccc(C)c(Nc4nccc(-c5cnccn5)n4)c3)cc(C(F)(F)F)c2)cn1 [Radotinib] (top concentration 10000 nM) | 0.9
CC[C@H](Nc1ncnc2[nH]cnc12)c1nc2cccc(F)c2c(=O)n1-c1ccccc1 [Idelalisib] (top concentration 10000 nM) | 7.24
Cc1noc2c1-c1ccccc1C(c1ccc(Cl)cc1)=N[C@H]2CC(N)=O [CPI-0610] (top concentration 10000 nM) | 5.6
C=C(c1ccc(C(=O)O)cc1)c1cc2c(cc1C)C(C)(C)CCC2(C)C [Bexarotene] (top concentration 10000 nM) | -3.4
CC1(COc2ccc3c(c2)ncn3-c2ccc3cccc(N4CCC(N)CC4)c3n2)COC1 [Crenolanib] (top concentration 10000 nM) | -4.02
O=C(Nc1cc(Oc2cc(F)c(NC(=O)C3(C(=O)Nc4ccc(F)cc4)CC3)cc2F)ccn1)C1CC1 [Altiratinib] (top concentration 10000 nM) | 1.34
O=C(Nc1ccncc1)C(=O)c1cn(Cc2ccc(Cl)cc2)c2ccccc12 [Indibulin] (top concentration 10000 nM) | 0.34
Cc1ncc(-c2ccnc(Nc3ccc(S(C)(=O)=O)cc3)n2)n1C(C)C [AZD-5438] (top concentration 10000 nM) | 1.44
NC[C@@](O)(c1ccc(Cl)cc1)c1ccc(-c2cn[nH]c2)cc1 (top concentration 10000 nM) | 1.28
Cn1c(Nc2ccc(C(F)(F)F)cc2)nc2cc(Oc3ccnc(-c4ncc(C(F)(F)F)[nH]4)c3)ccc21 [NVP-RAF265] (top concentration 1000 nM) | -0.22
CNCc1ccc(-c2[nH]c3cc(F)cc4c3c2CCNC4=O)cc1 [Rucaparib] (top concentration 10000 nM) | 0.62
O=C(CCCCCCC(=O)Nc1ccc([C@H]2O[C@@H](CSc3nc(-c4ccccc4)c(-c4ccccc4)o3)C[C@@H](c3ccc(CO)cc3)O2)cc1)NO [Tubacin] (top concentration 10000 nM) | 9.94
N#CCNC(=O)c1ccc(-c2ccnc(Nc3ccc(N4CCOCC4)cc3)n2)cc1 [Momelotinib] (top concentration 10000 nM) | -0.32
Nc1cccc2c1CN(C1CCC(=O)NC1=O)C2=O (stereo not given) [Lenalidomide] (top concentration 100000 nM) | -2.28
CCN1CCN(Cc2ccc(Nc3ncc(F)c(-c4cc(F)c5nc(C)n(C(C)C)c5c4)n3)nc2)CC1 [Abemaciclib] (top concentration 2500 nM) | -4.46
